This is an account of results in PubChem BioAssay AID504726 (Broad Institute, 2011).

Each structure is given as a SMILES string. Active and inactive are the calls of the source.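 Rule for the calls: active = fitted half-maximal concentration for a cytotoxic signal drop no higher than ten times the top valid dose tested; inconclusive = flat curve between -70 and -30 percent, or an unreliable fit; inactive = flat within 30 percent, signal rise, or potency beyond limit.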

This assay can be described thus: viability loss in HeLa cells – cell-based, 24 h, cherry-picked samples, cytotoxicity control, dose response (AID 504726).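 Note: 0% = DMSO neutral controls and -100% = mitoxantrone positive controls.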 To be noted: HeLa viability, CellTiter-Glo ATP luminescence, 24 h; at 35 µM (top of the series). On the technique in general: ATP-based viability assays read luminescence as a measure of living cells.
Turning to `CC(=O)NC(C(=O)c1ccccc1)C(=O)c1ccccc1`, the activity change, negative = cytotoxicity was 7.04% (inactive).

Turning to `O=C(Cn1nc(Cc2ccncc2)c2ccccc2c1=O)N1CCN(C(=O)c2ccco2)CC1`, the activity change, negative = cytotoxicity is -4.22% (inactive).

Consider `N#CC1=C(N)Oc2ccc3ccc(O)cc3c2C1c1ccsc1` (stereo not given), for which the activity change, negative = cytotoxicity is 5.49% (inactive). `CC(=O)OCCn1c2nc(=O)[nH]c(=O)c-2nc2cc(C)c(C)cc21`: the activity change, negative = cytotoxicity is -8.08% (inactive). As for `O=C(CN(Cc1ccccc1F)C(=O)c1csnn1)NCc1ccc2c(c1)OCO2`, the figure is -9.28% (inactive); as for `Clc1ccc(-c2nnc3sc(-c4ccc(Br)o4)nn23)cc1`, -3.6% (inactive); as for `Cc1noc(C)c1-c1nc(CSc2ccccc2)no1`, -16.7% (inactive). As for `CCn1c(CN2CCCCC2)nc2cc(S(=O)(=O)N3CCCCC3)ccc21`, the figure is -13.7% (inactive). As for `CN(C)c1ccc(/C=N/N(CCO)C2=NS(=O)(=O)c3ccccc32)cc1`, the figure is -6.62% (inactive); as for `COc1ccccc1CNC(=O)CCS(=O)(=O)c1cccs1`, 4.31% (inactive); as for `O=C(O)CCN1C(=O)/C(=C\c2ccc(-c3nc4ccccc4s3)o2)SC1=S`, 1.33% (inactive).

Take `COc1ccc(OC2CCN(S(=O)(=O)c3ccc(OC)cc3)CC2)cc1`: the activity change, negative = cytotoxicity was -12.1% (inactive).

Consider `Cc1c(NC(=O)CCC2CCCCC2)cc(C(=O)N2CCOCC2)cc1[N+](=O)[O-]`, for which the activity change, negative = cytotoxicity is 0.409% (inactive). As for `O=C(O)c1ccc2c(c1)[C@@H]1C=CC[C@@H]1[C@H](c1ccccn1)N2`, the figure is -31.8% (inactive); as for `C/C(=N/NC(=O)c1ccncc1)c1cc2ccc(O)cc2oc1=O`, 3.38% (inactive); as for `COC(=O)c1c(C)oc2ccc(N(C(C)=O)S(=O)(=O)c3ccccc3)cc12`, 1.25% (inactive). The result for `COc1cccc(OC)c1C(=O)Nc1cc(C)on1` reads 0.727% (inactive). The result for `COc1ccc(N(CC(=O)NCc2ccc3c(c2)OCO3)C(=O)c2csnn2)cc1` reads 3.04% (inactive); that for `O=C(OCc1ccccc1)N1C=CC2CC1c1c(Cl)cccc12` (stereo not given), -8.44% (inactive); that for `CN(C)c1ccc(O)c2c1CC1CC3[C@@H](N(C)C)C(=O)C(C(N)=O)=C(O)[C@]3(O)C(=O)C1=C2O` (stereo not given in full), -1.73% (inactive).

For the compound `CC1CC(C)(C)NC(=S)N1CC(=O)N(C)Cc1ccccc1` (stereo not given), the activity change, negative = cytotoxicity was -2.63% (inactive). As for `CCCn1c(SCC(=O)NCc2cccs2)nc2c1c(=O)n(C)c(=O)n2C`, the figure is 7.8% (inactive); as for `COc1ccc(-c2n[nH]c(=S)n2-c2ccc(C)cc2)cc1`, 4.29% (inactive); as for `Cc1ccc(NC(=O)CN(C)C(=O)c2nn(C)c(=O)c3ccccc23)cc1`, -13.7% (inactive). On to `O=c1cc2c(=O)oc3cc(O)c(O)oc3c2c(O)c1O`, for which the activity change, negative = cytotoxicity was -7.01% (inactive). As for `O=C1CN=C(Nc2ccccc2Cl)N1Cc1ccc2c(c1)OCO2`, the figure is -6.04% (inactive). The result for `Nc1cccc2c(O)cc(S(=O)(=O)O)cc12` reads -1.83% (inactive).

Consider `Cc1cc(-c2nnc(SCC(=O)Nc3ccccc3)n2C)no1`, for which the activity change, negative = cytotoxicity was -3.15% (inactive).

For `CCNC(=O)COC(=O)c1cccc(Br)c1`, the activity change, negative = cytotoxicity was -0.098% (inactive). As for `COc1ccc(C)cc1NC(=O)C(OC(=O)c1cnccn1)c1ccccc1` (stereo not given), the figure is -9.07% (inactive); as for `N=C1/C(=C/c2ccc(-c3cccc(C(=O)O)c3)o2)C(=O)N=C2SC(CC(=O)N3CCOCC3)=NN12`, -4.55% (inactive); as for `Cc1ccc(N(CC(=O)N2CCOCC2)S(C)(=O)=O)cc1`, -3.08% (inactive). As for `O=C1C=C(c2ccoc2)N2CCC[C@H]2C1`, the figure is -3.65% (inactive). As for `Cc1cc(C)n(CCC(=O)N/N=C/c2ccc(O)cc2O)n1`, the figure is -6.35% (inactive); as for `Cc1[nH][nH]c(=O)c1C(c1ccc(-c2ccc(Cl)c(C(=O)O)c2)o1)c1c(C)[nH][nH]c1=O`, -3.88% (inactive); as for `NNC(=O)C1C(O)CCC2CN3CCc4c([nH]c5ccccc45)C3CC21` (stereo not given), -12.3% (inactive).

As for `Oc1ccc(-c2nc3ccccn3c2NCc2ccco2)cc1`, the activity change, negative = cytotoxicity is -4.28% (inactive). For the compound `NNC(=O)CC1=NNC(=O)C1`, the activity change, negative = cytotoxicity was -0.701% (inactive). As for `CCC(=O)Oc1ccc2c(c1)O/C(=C\c1ccco1)C2=O`, the figure is 4.02% (inactive). As for `COc1ccc(-c2cc(C(F)(F)F)n3ncc(C(=O)N4CCCCC4c4cccnc4)c3n2)cc1` (stereo not given), the figure is -6.34% (inactive); as for `O=S(=O)(O)c1cc(O)c2cc(Nc3ccccc3)ccc2c1`, -1.35% (inactive). On to `CNc1ccc2c3c(cccc13)C(=O)N(C)C2=O`, for which the activity change, negative = cytotoxicity is -12.7% (inactive). `COc1ccc(NC(=O)NS(=O)(=O)c2ccc(C)cc2)cn1`: the activity change, negative = cytotoxicity was -5.07% (inactive). As for `CCN(CC)C(=O)C1c2ccccc2Oc2ccccc21`, the figure is -12.1% (inactive); as for `COc1ccc(OCC(=O)N2CCN(c3cccc(C(F)(F)F)c3)CC2)cc1`, -8.78% (inactive); as for `Cc1cc2nc3c(=O)n(C4CCCCC4)c(=O)[nH]c3nc2cc1N`, 4.62% (inactive). The result for `CCc1ccc(C2CC(c3cccc(Cl)c3)n3nc(N)nc3N2)cc1` (stereo not given) reads -1.95% (inactive); that for `O=C(Nc1ccc(Br)cn1)c1cccc2ccccc12`, -12.4% (inactive); that for `COc1ccc(Cl)cc1C(=O)NNC(=O)c1cc2ccccc2o1`, -3.35% (inactive). As for `O=C(NCCCO)c1ccc2nc(-c3ccco3)c(-c3ccco3)nc2c1`, the figure is -12.3% (inactive). Consider `Cc1noc(C)c1C(=O)N1CCN(c2ccc(OCc3ccccc3)cc2)CC1`, for which the activity change, negative = cytotoxicity is -3.67% (inactive). Regarding `COc1cccc(NC(=S)N2CCN(C(c3ccccc3)c3ccccc3)CC2)c1`, the activity change, negative = cytotoxicity was -2.14% (inactive). As for `O=C(Nc1cc(Cl)ccc1-n1cncn1)c1cccs1`, the figure is -6.29% (inactive). As for `O=C(COc1cccc(F)c1)Nc1nc(-c2cccnc2)cs1`, the figure is -21.4% (inactive). On to `N=C1/C(=C\c2ccc(Br)o2)C(=O)N=C2SC(CC(=O)N3CCOCC3)=NN12`, for which the activity change, negative = cytotoxicity was 1.98% (inactive). Consider `Nc1ccc2nc3c(=O)n(C4CCCCC4)c(=O)[nH]c3nc2c1`, for which the activity change, negative = cytotoxicity is -0.337% (inactive). Turning to `O=C(O)CCCN1C(=O)/C(=C/C=C/c2ccco2)SC1=S`, the activity change, negative = cytotoxicity is -9.04% (inactive). On to `CCN(CC)c1ccc2cc(S(=O)(=O)c3ccc(Cl)cc3)c(=O)oc2c1`, for which the activity change, negative = cytotoxicity is -13.6% (inactive).

On to `CC(OC(=O)c1cn(C)c2ccccc12)C(=O)N1CCCC1` (stereo not given), for which the activity change, negative = cytotoxicity is -9.43% (inactive). The result for `CCOC(=O)c1ccc[n+](CC(=O)c2ccc(OC)cc2)c1` reads -1.73% (inactive).

In the case of `FC(F)(F)c1nnc(-c2ccccc2)nc1N1CCCC1`, the activity change, negative = cytotoxicity was -13.4% (inactive). As for `O=c1nc(N2CCOCC2)ccn1-c1nc(-c2ccccc2)sc1-c1ccccc1`, the activity change, negative = cytotoxicity was -8.43% (inactive). Take `C=CCn1c(C)cc(-c2csc(NC(=O)CCc3nc4ccccc4c(=O)[nH]3)n2)c1C`: the activity change, negative = cytotoxicity was -6.5% (inactive).

For `Nc1nc(SCC(=O)N2CCCCC2)[nH]c(=O)c1NC(=O)c1cccs1`, the activity change, negative = cytotoxicity is -0.747% (inactive). On to `CC(C)c1ccc(CNc2ccc([N+](=O)[O-])cn2)cc1`, for which the activity change, negative = cytotoxicity is -10.7% (inactive). The result for `Nc1cccc2cc(S(=O)(=O)O)ccc12` reads 5.33% (inactive). Take `CCOC(=O)C1=C(COC(=O)c2ccc([N+](=O)[O-])s2)NC(=O)NC1C` (stereo not given): the activity change, negative = cytotoxicity is -1% (inactive).

Regarding `O=c1[nH]c(=O)n(C2CCCCC2)c(O)c1C=Nc1ccc(N2CCOCC2)cc1`, the activity change, negative = cytotoxicity is -11.5% (inactive). Take `Clc1ccc(C2=CC(c3ccco3)n3ncnc3N2)cc1` (stereo not given): the activity change, negative = cytotoxicity is -16.1% (inactive). As for `O=C(NCc1cccnc1)C(=O)C1C(=O)Nc2ccccc21` (stereo not given), the figure is -6.53% (inactive); as for `CCOC(=O)C1(Cc2cccc(F)c2)CCN(Cc2c(C)nn(CC)c2C)CC1`, 0.828% (inactive); as for `CCc1cc[n+](-c2nc([O-])sc2C=O)cc1`, 0.003% (inactive). As for `NC(=S)COc1ccccc1`, the figure is -7.95% (inactive); as for `COc1ccc(NS(=O)(=O)c2cccc3ccccc23)cc1`, -7.48% (inactive). As for `CC(C)CN(C(=O)CSc1nncn1C)C1CCS(=O)(=O)C1` (stereo not given), the figure is 4.85% (inactive); as for `CCOC(=O)CN1NC2(CCCCCC2)NC1=S`, -1.79% (inactive). As to `CC(C)c1ccc(NC(=O)Cn2c(=O)oc3cccnc32)cc1`, the activity change, negative = cytotoxicity was -7.38% (inactive). The result for `CC1=NCCc2c1[nH]c1cc(O)ccc21` reads -12.7% (inactive); that for `CC(C)C(C(=O)O)N1C(=O)/C(=C/C=C/c2ccco2)SC1=S` (stereo not given), -14.8% (inactive); that for `Cc1ccccc1NC(=S)NC(C)CCc1ccccc1` (stereo not given), -9.6% (inactive).
